These compounds were tested against T1, full length active recombinant SYK enzyme (Homo sapiens, UniProt P43405) (assay: Inhibition of Syk tyrosine phosphorylation activity (LANCE TR-FRET kinase assay)). Conditions: activity in the Syk assays, class symbols.
T1 construct: full length active recombinant SYK enzyme (Millipore, Calif.); purchased Millipore
Assay type: biochemical
Summary of the method: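 1 nM full-length active recombinant SYK phosphorylated 550 nM biotin-DEEDYESP-OH with 100 μM ATP in 50 mM Tris pH 7.5, 5 mM MgCl2, 1 mM DTT and 3% DMSO for 1 h at room temperature. After EDTA quench, Eu-anti-phosphotyrosine/SA-APC TR-FRET was read after 1 h. IC50s came from non-linear regression.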

Compound | IC50 [nM]
CC(C)C[C@@H](Nc1nc(Nc2cnc3ccccc3c2)cnc1C(N)=O)C(N)=O [Example 95, (R)-3-(1-amino-4-methyl-1-oxopentan-2-ylamino)-5-(quinolin-3-ylamino)pyrazine-2-carboxamide] | > 1000
NC(=O)c1ncc(N[C@@H]2CCCC[C@@H]2N)nc1Nc1cccc(-n2nccn2)c1 [Example 10, 3-(3-(2H-1,2,3-triazol-2-yl)phenylamino)-5-((1R,2S)-2-aminocyclohexylamino)pyrazine-2-carboxamide] | 1 to 10
CN1C(=O)COc2ccc(Nc3nc(N[C@@H]4CCCC(F)(F)[C@@H]4N)cnc3C(N)=O)cc21 [Example 230, 5-((1R,2R)-2-amino-3,3-difluorocyclohexylamino)-3-(4-methyl-3-oxo-3,4-dihydro-2H-benzo[b][1,4]oxazin-6-ylamino)pyrazine-2-carboxamide] | 10 to 100
Cc1cc(Nc2nc(N[C@@H]3CCCC[C@@H]3N)cnc2C(N)=O)ccc1N1CCOCC1 [Example 143, 5-((1R,2S)-2-aminocyclohexylamino)-3-(3-methyl-4-morpholinophenylamino)pyrazine-2-carboxamide] | 1 to 10
CC[C@@H](Nc1cnc(C(N)=O)c(Nc2snc(C)c2I)n1)C(N)=O [Example 133, (R)-5-((1-amino-1-oxobutan-2-yl)amino)-3-((4-iodo-3-methylisothiazol-5-yl)amino)pyrazine-2-carboxamide] | 10 to 100
CC(=O)N1CCN(c2ccc(Nc3cnc(C(N)=O)c(NC4CC4)n3)cc2)CC1 [Example 60, 5-(4-(4-acetylpiperazin-1-yl)phenylamino)-3-(cyclopropylamino)pyrazine-2-carboxamide] | > 1000
CC[C@@H](Nc1cnc(C(N)=O)c(Nc2ccnc(F)c2)n1)C(N)=O [Example 264, (R)-5-(1-amino-1-oxobutan-2-ylamino)-3-(2-fluoropyridin-4-ylamino)pyrazine-2-carboxamide] | 10 to 100

Second part, the compound after the results:

IC50 [nM] | Compound
10 to 100 | NC(=O)c1ncc(N[C@@H]2CCCC[C@@H]2N)nc1Nc1ccc(N2CCOCC2=O)c(F)c1 [Example 443, 5-(((1R,2S)-2-aminocyclohexyl)amino)-3-((3-fluoro-4-(3-oxomorpholino)phenyl)amino)pyrazine-2-carboxamide]
10 to 100 | CN(C)C(=O)c1ccc(Nc2nc(N[C@@H]3CCCC[C@@H]3N)cnc2C(N)=O)cc1Cl [Example 279, 5-((1R,2S)-2-aminocyclohexylamino)-3-(3-chloro-4-(dimethylcarbamoyl)phenylamino)pyrazine-2-carboxamide]
100 to 1000 | Cc1cc(Nc2nc(N[C@H](CC[S+](C)[O-])C(N)=O)cnc2C(N)=O)sn1 (stereo partly drawn) [Example 399, 5-((2R)-1-amino-4-(methylsulfinyl)-1-oxobutan-2-ylamino)-3-(3-methylisothiazol-5-ylamino)pyrazine-2-carboxamide]
1 to 10 | NC(=O)c1ncc(N[C@@H]2CCCC[C@@H]2N)nc1Nc1cnc2scnc2c1 [Example 434, 5-(((1R,2S)-2-aminocyclohexyl)amino)-3-(thiazolo[5,4-b]pyridin-6-ylamino)pyrazine-2-carboxamide]
